Results on 11 molecules are retold here after US20240409662A1, “ANTIBODY MASKS AND USES THEREOF” (Vibrant Pharma Limited, priority 2021, published 2024).

What is called Kd is the free concentration of one partner at which half of the binding sites on the other are occupied at equilibrium, for simple one-to-one binding. A lower Kd goes with tighter binding.

In one test the target is SP34. The experiment in a line: BLI affinity of biotinylated N-terminal CD3ε peptides (on SA biosensor) to SP34 as analyte. Format: binding. The note with it: peptide immobilized. From the text:
Bio-Layer Interferometry (BLI) technique was employed for the measurement of protein-protein interactions in this study. A Octet Red96 system and Streptavidin (SA) or AHC biosensors (ForteBio, Fremont) were utilized.
To measure the binding of SP34 to CD3ε peptides, the peptides were immobilized on the SA biosensor through SA-biotin interaction according the manufacturer's instruction. After running PBS with 0.01% Tween-20 buffer to stabilize baselines, the biosensors were dipped into solid black 96-well plates (Greiner Bio-One, Cat. #65520, Monroe, North Carolina, USA) containing SP34 in indicated concentrations. Association and dissociation were measured accordingly, and binding kinetics were calculated using ForteBio's Data Analysis 12.0 software.
BLI technology was employed to measure the affinity of the six peptides to SP34 with a ForteBio Red96. These peptides were immobilized on the SA Biosensor and their affinities were measured using SP34 as the analyte. The binding sensorgrams indicate that SP34 binds to all six peptides with very similar profiles (FIG. 1C). The affinities of the bindings were determined as between 1-4 nM (Table 1), very similar to that of CD3δε/SP34 binding. […] It is further hypothesized that a N-terminal CD3ε peptide […] can bind to SP34 as well.

A further test deals with CD3 on human PBMC (human, UniProt P07766 23-207). The experiment in a line: cell-based or functional assay.

No end group written: not given here.

Sequence of CD3 on human PBMC (P07766 23-207): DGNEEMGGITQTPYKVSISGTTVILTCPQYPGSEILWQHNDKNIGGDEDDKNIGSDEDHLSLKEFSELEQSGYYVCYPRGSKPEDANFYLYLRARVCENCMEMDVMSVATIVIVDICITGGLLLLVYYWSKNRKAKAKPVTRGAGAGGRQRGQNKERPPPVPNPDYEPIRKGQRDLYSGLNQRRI

As for “CD3ε-p2: N-terminal human CD3ε peptide with C-terminal GGGGS linker, biotinylated (QDGNEEMGGGGGS; not fully specified (C-terminus); also: biotinylated)”, at SP34, the Kd is 3.6 nM, the ka was 65000 M⁻¹ s⁻¹ and the kd came to 0.00024 s⁻¹.
For “CD3ε-p3: N-terminal human CD3ε peptide with C-terminal GGGGS linker, biotinylated (QDGNEEMGGITGGGGS; not fully specified (C-terminus); also: biotinylated)”, on SP34, the dissociation constant (Kd) came to 2 nM, the ka worked out at 56000 M⁻¹ s⁻¹ and the kd is 0.00011 s⁻¹.
For “CD3ε-p5: N-terminal human CD3ε peptide with C-terminal GGGGS linker, biotinylated (QDGNEEMGGITQTPYKVGGGGS; not fully specified (C-terminus); also: biotinylated)”, in that order: 1.8 nM, 54000 M⁻¹ s⁻¹ and 9.8e-05 s⁻¹.
Take “CD3ε-p6: N-terminal human CD3ε peptide with C-terminal GGGGS linker, biotinylated (QDGNEEMGGITQTPYKVSISGGGGS; not fully specified (C-terminus); also: biotinylated)”: at SP34, the Kd turned out to be 3.5 nM, the ka was 46000 M⁻¹ s⁻¹ and the kd came out at 0.00016 s⁻¹.
On SP34, “CD3ε-p7: N-terminal human CD3ε peptide with C-terminal GGGGS linker, biotinylated (QDGNEEMGGITQTPYKVSISGTTGGGGS; not fully specified (C-terminus); also: biotinylated, site not given here)” registered a Kd of 1.3 nM, a ka of 100000 M⁻¹ s⁻¹ and a kd of 0.00013 s⁻¹.

B1: L4-G3A (bispecific antibody)
heavy: QDANEEGSGSPLGLGSGSEVKLLESGGGLVQPKGSLKLSCAASGFTFNTYAMNWVRQAPGKGLEWVARIRSKYNNYATYYADSVKDRFTISRDDSQSILYLQMNNLKTEDTAMYYCVRHGNFGNSYVSWFAYWGQGTLVTVSS
light: QAVVTQESALTTSPGETVTLTCRSSTGAVTTSNYANWVQEKPDHLFTGLIGGTNKRAPGVPARFSGSLIGDKAALTITGAQTEDEAIYFCALWYSNLWVFGGGTKVEIK
chain: EVQLVESGGGFVQAGESLTLSCTSSTLTFTPYRMAWYRQAPGKQRDLVADISSGDGRTTNYADFAKGRFTISRDNIKNTVFLRMTNLKPEDTAVYYCNTFVSFVGIARSWGQGTQVTVSSESKYGPPCPPCPAPEAAGGPSVFLFPPKPKDTLMISRTPEVTCVVVDVSQEDPEVQFNWYVDGVEVHNAKTKPREEQFNSTYRVVSVLTVLHQDWLNGKEYKCKVSNKGLPSSIEKTISKAKGQPREPQVCTLPPSQEEMTKNQVSLSCAVKGFYPSDIAVEWESNGQPENNYKTTPPVLDSDGSFFLVSRLTVDKSRWQEGNVFSCSVMHEALHNRFTQKSLSLSL
For B1, in the test with CD3 on human PBMC, the “Digested vs. masked (ratio of killing EC50)” value amounted to 144 fold and the “EC50 of M-TCE-induced killing of HT29 cells in the presence of human PBMC” value (shortened to “EC50 of M-TCE-induced killing … of human PBMC”) was determined as 1.72 nM.

B2: MMP9-digested L4-D2E (bispecific antibody, not shown: small tags and cut ends)
heavy: EVKLLESGGGLVQPKGSLKLSCAASGFTFNTYAMNWVRQAPGKGLEWVARIRSKYNNYATYYADSVKDRFTISRDDSQSILYLQMNNLKTEDTAMYYCVRHGNFGNSYVSWFAYWGQGTLVTVSS
light: QAVVTQESALTTSPGETVTLTCRSSTGAVTTSNYANWVQEKPDHLFTGLIGGTNKRAPGVPARFSGSLIGDKAALTITGAQTEDEAIYFCALWYSNLWVFGGGTKVEIK
chain: EVQLVESGGGFVQAGESLTLSCTSSTLTFTPYRMAWYRQAPGKQRDLVADISSGDGRTTNYADFAKGRFTISRDNIKNTVFLRMTNLKPEDTAVYYCNTFVSFVGIARSWGQGTQVTVSSESKYGPPCPPCPAPEAAGGPSVFLFPPKPKDTLMISRTPEVTCVVVDVSQEDPEVQFNWYVDGVEVHNAKTKPREEQFNSTYRVVSVLTVLHQDWLNGKEYKCKVSNKGLPSSIEKTISKAKGQPREPQVCTLPPSQEEMTKNQVSLSCAVKGFYPSDIAVEWESNGQPENNYKTTPPVLDSDGSFFLVSRLTVDKSRWQEGNVFSCSVMHEALHNRFTQKSLSLSL
For the molecule B2, in the test with CD3 on human PBMC, the “EC50 of M-TCE-induced killing … of human PBMC” value stood at 0.011 nM.

B3: MMP9-digested L5-D2E (bispecific antibody, not shown: small tags and cut ends)
heavy: EVKLLESGGGLVQPKGSLKLSCAASGFTFNTYAMNWVRQAPGKGLEWVARIRSKYNNYATYYADSVKDRFTISRDDSQSILYLQMNNLKTEDTAMYYCVRHGNFGNSYVSWFAYWGQGTLVTVSS
light: QAVVTQESALTTSPGETVTLTCRSSTGAVTTSNYANWVQEKPDHLFTGLIGGTNKRAPGVPARFSGSLIGDKAALTITGAQTEDEAIYFCALWYSNLWVFGGGTKVEIK
chain: EVQLVESGGGFVQAGESLTLSCTSSTLTFTPYRMAWYRQAPGKQRDLVADISSGDGRTTNYADFAKGRFTISRDNIKNTVFLRMTNLKPEDTAVYYCNTFVSFVGIARSWGQGTQVTVSSESKYGPPCPPCPAPEAAGGPSVFLFPPKPKDTLMISRTPEVTCVVVDVSQEDPEVQFNWYVDGVEVHNAKTKPREEQFNSTYRVVSVLTVLHQDWLNGKEYKCKVSNKGLPSSIEKTISKAKGQPREPQVCTLPPSQEEMTKNQVSLSCAVKGFYPSDIAVEWESNGQPENNYKTTPPVLDSDGSFFLVSRLTVDKSRWQEGNVFSCSVMHEALHNRFTQKSLSLSL
Consider B3, for which, in the test with CD3 on human PBMC, the “EC50 of M-TCE-induced killing … of human PBMC” value came to 0.013 nM.

B4: L6-D2E (bispecific antibody)
heavy: QEGNEESSGGGSPLGLSSGGGSEVKLLESGGGLVQPKGSLKLSCAASGFTFNTYAMNWVRQAPGKGLEWVARIRSKYNNYATYYADSVKDRFTISRDDSQSILYLQMNNLKTEDTAMYYCVRHGNFGNSYVSWFAYWGQGTLVTVSS
light: QAVVTQESALTTSPGETVTLTCRSSTGAVTTSNYANWVQEKPDHLFTGLIGGTNKRAPGVPARFSGSLIGDKAALTITGAQTEDEAIYFCALWYSNLWVFGGGTKVEIK
chain: EVQLVESGGGFVQAGESLTLSCTSSTLTFTPYRMAWYRQAPGKQRDLVADISSGDGRTTNYADFAKGRFTISRDNIKNTVFLRMTNLKPEDTAVYYCNTFVSFVGIARSWGQGTQVTVSSESKYGPPCPPCPAPEAAGGPSVFLFPPKPKDTLMISRTPEVTCVVVDVSQEDPEVQFNWYVDGVEVHNAKTKPREEQFNSTYRVVSVLTVLHQDWLNGKEYKCKVSNKGLPSSIEKTISKAKGQPREPQVCTLPPSQEEMTKNQVSLSCAVKGFYPSDIAVEWESNGQPENNYKTTPPVLDSDGSFFLVSRLTVDKSRWQEGNVFSCSVMHEALHNRFTQKSLSLSL
B4: in the test with CD3 on human PBMC, the “Digested vs. masked (ratio of killing EC50)” value was 32 fold and the “EC50 of M-TCE-induced killing … of human PBMC” value is 0.317 nM.

B5: L5-D2E (bispecific antibody)
heavy: QEGNEESSGGSPLGLSSGGSEVKLLESGGGLVQPKGSLKLSCAASGFTFNTYAMNWVRQAPGKGLEWVARIRSKYNNYATYYADSVKDRFTISRDDSQSILYLQMNNLKTEDTAMYYCVRHGNFGNSYVSWFAYWGQGTLVTVSS
light: QAVVTQESALTTSPGETVTLTCRSSTGAVTTSNYANWVQEKPDHLFTGLIGGTNKRAPGVPARFSGSLIGDKAALTITGAQTEDEAIYFCALWYSNLWVFGGGTKVEIK
chain: EVQLVESGGGFVQAGESLTLSCTSSTLTFTPYRMAWYRQAPGKQRDLVADISSGDGRTTNYADFAKGRFTISRDNIKNTVFLRMTNLKPEDTAVYYCNTFVSFVGIARSWGQGTQVTVSSESKYGPPCPPCPAPEAAGGPSVFLFPPKPKDTLMISRTPEVTCVVVDVSQEDPEVQFNWYVDGVEVHNAKTKPREEQFNSTYRVVSVLTVLHQDWLNGKEYKCKVSNKGLPSSIEKTISKAKGQPREPQVCTLPPSQEEMTKNQVSLSCAVKGFYPSDIAVEWESNGQPENNYKTTPPVLDSDGSFFLVSRLTVDKSRWQEGNVFSCSVMHEALHNRFTQKSLSLSL
Consider B5, for which, in the test with CD3 on human PBMC, the “Digested vs. masked (ratio of killing EC50)” value worked out at 32 fold and the “EC50 of M-TCE-induced killing … of human PBMC” value came to 0.418 nM.

B6: L7-D2G (bispecific antibody)
heavy: QGGNEESSGGSGSPLGLSSGGSGSEVKLLESGGGLVQPKGSLKLSCAASGFTFNTYAMNWVRQAPGKGLEWVARIRSKYNNYATYYADSVKDRFTISRDDSQSILYLQMNNLKTEDTAMYYCVRHGNFGNSYVSWFAYWGQGTLVTVSS
light: QAVVTQESALTTSPGETVTLTCRSSTGAVTTSNYANWVQEKPDHLFTGLIGGTNKRAPGVPARFSGSLIGDKAALTITGAQTEDEAIYFCALWYSNLWVFGGGTKVEIK
chain: EVQLVESGGGFVQAGESLTLSCTSSTLTFTPYRMAWYRQAPGKQRDLVADISSGDGRTTNYADFAKGRFTISRDNIKNTVFLRMTNLKPEDTAVYYCNTFVSFVGIARSWGQGTQVTVSSESKYGPPCPPCPAPEAAGGPSVFLFPPKPKDTLMISRTPEVTCVVVDVSQEDPEVQFNWYVDGVEVHNAKTKPREEQFNSTYRVVSVLTVLHQDWLNGKEYKCKVSNKGLPSSIEKTISKAKGQPREPQVCTLPPSQEEMTKNQVSLSCAVKGFYPSDIAVEWESNGQPENNYKTTPPVLDSDGSFFLVSRLTVDKSRWQEGNVFSCSVMHEALHNRFTQKSLSLSL
As for B6, in the test with CD3 on human PBMC, the “Digested vs. masked (ratio of killing EC50)” value is 9 fold and the “EC50 of M-TCE-induced killing … of human PBMC” value turned out to be 0.096 nM.
